Measurements as given in PubChem BioAssay AID624145 (Sanford-Burnham Center for Chemical Genomics, 2012).
Active and inactive are the calls of the source.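 How the source made its calls: active means EC50 at or below 20 µM; inactive means the rest.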

system: hiPSC single-cell survival, DAPI nuclei count imaging; assay: enhancers of single-cell hiPSC survival, dose response, imaging, fluorescence imaging, uHTS hits (AID 624145)

Question: With `CCN1C/C(=C/c2cccc([N+](=O)[O-])c2)C(=O)/C(=C/c2cccc([N+](=O)[O-])c2)C1` as the molecule, how does the EC50 read?
Answer: > 80 µM (inactive)

Question: How did the EC50 turn out when `CC(Oc1ccccc1)C(=O)Nc1nc(-c2ccncc2)cs1` (stereo not drawn) was run?
Answer: 42.9 µM (inactive)

Question: With `C=C1C(=O)OC2CC(C)C3C=CC(=O)C3(C)C(O)C12` (stereo not drawn) as the molecule, how does the EC50 read?
Answer: > 80 µM (inactive)

Question: `C=C1C(C)C2C(Cc3ccccc3)NC(=O)C23OC(=O)/C=C/C(O)CCCC(C)C/C=C/C3C1O` (stereo not drawn) was tested. Which EC50 did it give?
Answer: 12.5 µM

Question: Which EC50 does the source give for `O=C(Nc1ccncc1)c1c(F)cccc1F` here?
Answer: 13.6 µM

Question: With `COC(=O)CCSc1cc([N+](=O)[O-])cc2c1c(C1OCCS1)nn2-c1ccccc1` (stereo not drawn) as the molecule, how does the EC50 read?
Answer: > 80 µM (inactive)

Question: Which EC50 does the source give for `CNc1cc(Cl)c2nonc2c1[N+](=O)[O-]` here?
Answer: > 80 µM (inactive)

Question: Which EC50 does the source give for `O=C(NCC1CC1)c1ccc(-c2cn[nH]c2)c2ccoc12` here?
Answer: 14.2 µM

Question: With `O=C(NCc1ccccc1)c1ccc(-c2cn[nH]c2)c2ccoc12` as the molecule, how does the EC50 read?
Answer: 1.1 µM

Question: With `O=c1c(Cl)c(Cl)cnn1Cc1nnc(-c2ccccc2Br)o1` as the molecule, how does the EC50 read?
Answer: > 80 µM (inactive)

Question: `c1ccc(CN2CCN(c3nc(NCc4ccco4)c4ccccc4n3)CC2)cc1` was tested. Which EC50 did it give?
Answer: 5.81 µM

Question: `COc1ccc2c(c1)c(=O)c(C(=O)c1ccc(Cl)cc1)cn2CC(=O)Nc1ccc(F)cc1` was tested. Which EC50 did it give?
Answer: 18.6 µM

Question: How did the EC50 turn out when `COc1ccccc1Sc1nc(-c2ccccn2)ncc1OC` was run?
Answer: 45.7 µM (inactive)

Question: `C=C1[C@@H](C)[C@H]2[C@H](Cc3ccccc3)NC(=O)[C@]23OC(=O)/C=C/[C@H](O)CCC[C@@H](C)C/C=C/[C@H]3[C@@H]1O` was tested. Which EC50 did it give?
Answer: 12.5 µM

Question: For `CN1C/C(=C/c2cccnc2)C(=O)/C(=C/c2cccnc2)C1`, which EC50 is on record?
Answer: > 80 µM (inactive)

Question: With `C=C1C(=O)O[C@@H]2C[C@@H](C)[C@@H]3C=CC(=O)[C@@]3(C)[C@@H](O)[C@H]12` as the molecule, how does the EC50 read?
Answer: > 80 µM (inactive)

Question: How did the EC50 turn out when `CN(Cc1ccc(C(F)(F)F)cc1)C(=O)[C@H]1O[C@@H](n2cnc3c(N)ncnc32)[C@H](O)[C@@H]1O` was run?
Answer: 20.8 µM (inactive)

Question: `CN1C2CCC1/C(=C/c1ccccn1)C(=O)/C2=C\c1ccccn1` was tested. Which EC50 did it give?
Answer: > 80 µM (inactive)

Question: How did the EC50 turn out when `CCCNC(=O)COC(=O)c1ccccc1C(=O)c1ccc(Cl)c([N+](=O)[O-])c1` was run?
Answer: > 80 µM (inactive)

Question: Which EC50 does the source give for `CC(OC(=O)c1cccc(S(=O)(=O)N2CCN(C)CC2)c1)C(=O)Nc1ccc(C(N)=O)cc1` (stereo not drawn) here?
Answer: 35.6 µM (inactive)

Question: How did the EC50 turn out when `O=C(Nc1ccncc1)c1c(F)c(F)c(F)c(F)c1F` was run?
Answer: 5.46 µM

Question: How did the EC50 turn out when `O=C(Nc1ccncc1)c1ccccc1[N+](=O)[O-]` was run?
Answer: 33.4 µM (inactive)

Question: `CCOCCCNC(=O)/C(C#N)=C/c1ccc([N+](=O)[O-])o1` was tested. Which EC50 did it give?
Answer: > 80 µM (inactive)

Question: Which EC50 does the source give for `Cc1nnc2n(C3CCCCC3)c(=O)c3c4c(sc3n12)COC(C)(C)C4` here?
Answer: > 80 µM (inactive)

Question: For `CC1(C)Cc2c(C#N)c(NCC3CCCO3)nc(-c3ccco3)c2CO1` (stereo not drawn), which EC50 is on record?
Answer: 42.8 µM (inactive)

Question: How did the EC50 turn out when `CN1Cc2cnnn2-c2ccccc2C1C#N` (stereo not drawn) was run?
Answer: 26.5 µM (inactive)

Question: For `N#C/C(=C/c1cccc([N+](=O)[O-])c1)c1nnc2n1CCCCC2`, which EC50 is on record?
Answer: > 80 µM (inactive)

Question: How did the EC50 turn out when `CCCCCCC[C@@H](C/C=C/CCC(=O)N(C)C/C(=C/Cl)C/C(=C\C(=O)N1CC(OC)=CC1=O)OC)OC` was run?
Answer: 0.525 µM

Question: With `CCCSc1nc(N2CCOCC2)c2c(c1C#N)CC(C)(C)SC2` as the molecule, how does the EC50 read?
Answer: > 80 µM (inactive)

Question: For `CC(OC(=O)c1ccc(S(=O)(=O)N2CCCCC2)cc1)C(=O)Nc1ccc(C(N)=O)cc1` (stereo not drawn), which EC50 is on record?
Answer: 10.5 µM

Question: Which EC50 does the source give for `CCCCn1c(=O)[nH]c(=O)c2c1nc(Cn1ncc(Cl)c(Cl)c1=O)n2CCC` here?
Answer: > 80 µM (inactive)

Question: How did the EC50 turn out when `COCCNC(=O)c1ccc(-c2cn[nH]c2)c2ccoc12` was run?
Answer: 19.2 µM

Question: For `CC1C/C(=C/c2ccncc2)C(=O)/C(=C/c2ccncc2)C1` (stereo not drawn), which EC50 is on record?
Answer: > 80 µM (inactive)

Question: How did the EC50 turn out when `CN(C(=O)COC(=O)c1nc(Cl)c(Cl)c(Cl)c1Cl)C1CCS(=O)(=O)C1` (stereo not drawn) was run?
Answer: > 80 µM (inactive)

Question: `O=C(Nc1ccncc1)c1ccccc1F` was tested. Which EC50 did it give?
Answer: 28.2 µM (inactive)

Question: Which EC50 does the source give for `O=C(C(O)c1ccc(Br)cc1)N1CCC(Nc2ccc3[nH]ncc3c2)CC1` (stereo not drawn) here?
Answer: 5.88 µM

Question: How did the EC50 turn out when `NC(=O)c1ccc(NC(=O)CCC(=O)c2cccs2)cc1` was run?
Answer: 7.14 µM

Question: For `CCn1c(Cl)c(C=O)s/c1=N\S(=O)(=O)c1ccccc1`, which EC50 is on record?
Answer: > 80 µM (inactive)

Question: How did the EC50 turn out when `CC(C)(C)NC(=O)Cn1nnc(-c2ccccc2NC(=O)c2cnccn2)n1` was run?
Answer: > 80 µM (inactive)

Question: Which EC50 does the source give for `O=C1/C(=C/c2ccncc2)CCC/C1=C\c1ccncc1` here?
Answer: > 80 µM (inactive)

Question: Which EC50 does the source give for `O=C(COc1ccccc1)Nc1nc(-c2ccncc2)cs1` here?
Answer: 29.3 µM (inactive)

Question: Which EC50 does the source give for `C=C1C(C)C2C(Cc3ccccc3)NC(=O)C23C(OC(C)=O)C=CC(C)(O)CC(C)CC=CC3C1O` (stereo not drawn) here?
Answer: > 80 µM (inactive)

Question: How did the EC50 turn out when `O=C(Nc1nc(-c2ccncc2)cs1)C1COc2ccccc2O1` (stereo not drawn) was run?
Answer: 1.86 µM

Question: How did the EC50 turn out when `O=C(Nc1ccncc1)c1cc(S(=O)(=O)N2CCOCC2)ccc1Cl` was run?
Answer: 13.8 µM

Question: With `CC(OC(=O)c1ccc2c(=O)n3c(nc2c1)CCC3)C(=O)Nc1ccc(C(N)=O)cc1` (stereo not drawn) as the molecule, how does the EC50 read?
Answer: 28.4 µM (inactive)

Question: For `O=C(Cc1ccc(Br)cc1)Nc1ccc2[nH]ncc2c1`, which EC50 is on record?
Answer: 19.1 µM

Question: `C=C(C)[C@@]12OC3(c4ccccc4)O[C@@H]1C1[C@@H]4O[C@]4(CO)[C@@H](O)[C@]4(O)C(=O)C(C)=C[C@H]4[C@@]1(O3)[C@H](C)[C@H]2OC(=O)/C=C/C=C/c1ccccc1` (stereo partly drawn) was tested. Which EC50 did it give?
Answer: > 80 µM (inactive)

Question: With `O=C(Nc1ccncc1)c1cc(S(=O)(=O)N2CCCC2)ccc1Cl` as the molecule, how does the EC50 read?
Answer: 13.6 µM

Question: With `CCC(C(=O)Nc1ccc2[nH]ncc2c1)c1ccccc1` (stereo not drawn) as the molecule, how does the EC50 read?
Answer: 6.49 µM

Question: How did the EC50 turn out when `O=S(=O)(c1cccc2cnccc12)N1CCNCC1` was run?
Answer: 2.05 µM

Question: Which EC50 does the source give for `CC1(C)Cc2c(C#N)c(SCC(=O)c3ccccc3)nc(N3CCOCC3)c2CS1` here?
Answer: 39.3 µM (inactive)

Question: Which EC50 does the source give for `Cc1c(C(=O)OCC(=O)Nc2ccc(C(N)=O)cc2)cccc1[N+](=O)[O-]` here?
Answer: > 80 µM (inactive)

Question: How did the EC50 turn out when `CCN1C/C(=C\c2cccc([N+](=O)[O-])c2)C(=O)/C(=C/c2cccc([N+](=O)[O-])c2)C1` was run?
Answer: > 80 µM (inactive)
